From ChEMBL document CHEMBL1201862, “PubChem BioAssay data set” (2004)
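Where inhibition never reached the appropriate level, the endpoint shown equals the highest concentration tested. Otherwise, values were interpolated linearly from a five-concentration, 48-hour dose response in 96-well plates. GI50 marks 50% less growth.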 Calls of active or inactive are those of the source. Cut-off read from the data, not from the text of the source: active = GI50 up to about 1.1 µM and inactive = higher.

What was measured:
Test in all cases: growth of human tumour cells (NCI), 48 h
DMS-114 = tested on: DMS-114
DMS-273 = tested on: DMS-273
HOP-18 = tested on: HOP-18
KM-20L2 = tested on: KM-20L2
LXFL 529 = tested on: LXFL 529
M19-MEL = tested on: M19-MEL
RXF 631 = tested on: RXF 631
SNB-78 = tested on: SNB-78
XF498 = tested on: XF498

SMILES | GI50 (DMS-114) | GI50 (DMS-273) | GI50 (HOP-18) | GI50 (KM-20L2) | GI50 (LXFL 529) | GI50 (M19-MEL) | GI50 (RXF 631) | GI50 (SNB-78) | GI50 (XF498)
Nc1ccc(S(=O)(=O)Nc2ccc(Nc3c4ccccc4nc4ccccc34)cc2)cc1 | < 0.0102 µM (active) | < 0.01 µM (active) | 0.43 µM (active) | 0.215 µM (active) | 3.91 µM (inactive) | 0.115 µM (active) | 0.284 µM (active) | 3.78 µM (inactive) | 3.61 µM (inactive)
O=C1C=C(N2CCCC2)C=C(N2CCCC2)C1 | 79.6 µM (inactive) | > 100 µM (inactive) | > 100 µM (inactive) | > 100 µM (inactive) | > 100 µM (inactive) | 28.1 µM (inactive) | – | > 100 µM (inactive) | > 100 µM (inactive)
O=c1c2ccccc2n2cnc3ccc(NCCNCCO)c1c32 | 2.04 µM (inactive) | – | 2.4 µM (inactive) | 1.41 µM (inactive) | 2.3 µM (inactive) | 2.96 µM (inactive) | 1.26 µM (inactive) | 2.06 µM (inactive) | –
COc1ccc(CC(=O)NCCc2ccc(OC)c(OC)c2)cc1Br | > 100 µM (inactive) | > 100 µM (inactive) | – | > 100 µM (inactive) | > 100 µM (inactive) | – | – | – | 38.7 µM (inactive)
Nc1ccc2ncc(Nc3ccc(F)cc3)nc2c1 | 85.3 µM (inactive) | > 100 µM (inactive) | – | – | – | 94.6 µM (inactive) | – | > 100 µM (inactive) | > 100 µM (inactive)
C[N+](C)=c1nc(N2CCOCC2)ss1 | – | > 100 µM (inactive) | – | – | > 100 µM (inactive) | – | 0.337 µM (active) | > 100 µM (inactive) | > 100 µM (inactive)
CC(=O)OCC1OC(n2c(=S)n(-c3ccccc3)c(=O)c3cc(Br)ccc32)C(OC(C)=O)C1OC(C)=O (centres undefined) | 99.8 µM (inactive) | > 100 µM (inactive) | > 100 µM (inactive) | > 100 µM (inactive) | 65.3 µM (inactive) | > 100 µM (inactive) | – | > 100 µM (inactive) | 71.8 µM (inactive)
CC1=C2CC[C@@]3(C)C(=CCC3O)C2(C)CCC1=O (some centres undefined) | > 100 µM (inactive) | > 100 µM (inactive) | > 100 µM (inactive) | > 100 µM (inactive) | > 100 µM (inactive) | > 100 µM (inactive) | > 100 µM (inactive) | > 100 µM (inactive) | –
COc1ccc(/C=C2\CCC(CN3CCOCC3)C2=O)cc1 (centres undefined) | 2.72 µM (inactive) | – | 5.78 µM (inactive) | 6.3 µM (inactive) | 1.59 µM (inactive) | 4.31 µM (inactive) | 6.52 µM (inactive) | 4.86 µM (inactive) | 3.56 µM (inactive)
Cc1ccccc1C(=O)Oc1ccc(OCc2ccccc2)cc1 | 28.9 µM (inactive) | > 100 µM (inactive) | > 100 µM (inactive) | 75.5 µM (inactive) | 87.9 µM (inactive) | > 100 µM (inactive) | – | > 100 µM (inactive) | > 100 µM (inactive)
CN(C)CCNC(=O)C1COc2cc(-c3cc(=O)c4ccccc4o3)ccc2O1 (centres undefined) | – | 18.5 µM (inactive) | 24.4 µM (inactive) | 22 µM (inactive) | – | > 100 µM (inactive) | – | 24.7 µM (inactive) | –
COc1cc2ccc(/C(C)=N/OC(C)=O)cc2cc1OC | > 100 µM (inactive) | 73.8 µM (inactive) | 58.2 µM (inactive) | > 100 µM (inactive) | 95.9 µM (inactive) | > 100 µM (inactive) | 97.7 µM (inactive) | 92.9 µM (inactive) | 83.6 µM (inactive)
C=C1C(=O)OC2/C=C(CO)/C=C\C3OC3(C)CC(OC(=O)/C(C)=C/COC(C)=O)C12 (centres undefined) | 4.35 µM (inactive) | 1.97 µM (inactive) | 9.38 µM (inactive) | 4.7 µM (inactive) | 1.58 µM (inactive) | 1.84 µM (inactive) | 2.74 µM (inactive) | 4.08 µM (inactive) | 2.47 µM (inactive)
Oc1ccccc1/C=N/Cc1ccco1 | > 100 µM (inactive) | – | > 100 µM (inactive) | > 100 µM (inactive) | > 100 µM (inactive) | > 100 µM (inactive) | > 100 µM (inactive) | > 100 µM (inactive) | > 100 µM (inactive)
Nc1nc(N)c(CCCCc2ccccc2)c(/C=C/c2ccc([N+](=O)[O-])cc2)n1 | 1.45 µM (inactive) | – | – | 2.49 µM (inactive) | 3.21 µM (inactive) | 3.36 µM (inactive) | – | 2.59 µM (inactive) | 1.84 µM (inactive)
Cc1cccc(NC2=NC(=O)C(CC(=O)Nc3cccc(C)c3C)S2)c1 (centres undefined) | 63.5 µM (inactive) | – | – | > 100 µM (inactive) | > 100 µM (inactive) | > 100 µM (inactive) | – | > 100 µM (inactive) | > 100 µM (inactive)
Cc1ccc(S(=O)(=O)C2=c3nc4ccccc4cc3=C3C(=O)c4ccccc4C(=O)C32)cc1 (centres undefined) | > 100 µM (inactive) | > 100 µM (inactive) | – | > 100 µM (inactive) | > 100 µM (inactive) | > 100 µM (inactive) | – | – | > 100 µM (inactive)
Cc1nc2c(sc(=S)n2-c2ccccc2)c2nc3ccccc3n12 | > 100 µM (inactive) | > 100 µM (inactive) | > 100 µM (inactive) | – | > 100 µM (inactive) | > 100 µM (inactive) | > 100 µM (inactive) | > 100 µM (inactive) | –
c1ccc(C2SCc3nc4ccccc4n32)cc1 (centres undefined) | 19 µM (inactive) | 33.7 µM (inactive) | 4.26 µM (inactive) | 47.6 µM (inactive) | – | 41.7 µM (inactive) | – | 95.5 µM (inactive) | 20.7 µM (inactive)
CCC(=O)CCC1=Nc2nnc(CCCCc3nnc4n3C(=O)C(CCC(=O)CC)=N4)n2C1=O | > 100 µM (inactive) | > 100 µM (inactive) | – | > 100 µM (inactive) | > 100 µM (inactive) | > 100 µM (inactive) | – | – | > 100 µM (inactive)
C=CCC1C(=O)C(C(=O)OC)N2CCc3c([nH]c4ccccc34)C12 (centres undefined) | > 100 µM (inactive) | – | – | > 100 µM (inactive) | > 100 µM (inactive) | > 100 µM (inactive) | – | – | –
N#CCCN(CCC#N)c1ccc(/C=C(/NC(=O)c2cc([N+](=O)[O-])ccc2Cl)C(=O)NN)cc1 | – | > 100 µM (inactive) | > 100 µM (inactive) | > 100 µM (inactive) | 54 µM (inactive) | > 100 µM (inactive) | – | > 100 µM (inactive) | –
CC#COS(=O)(=O)c1ccc(C)cc1 | 32.7 µM (inactive) | – | – | 46.5 µM (inactive) | 41 µM (inactive) | 70.1 µM (inactive) | – | 63.5 µM (inactive) | –
C=CCC1(CN(C)C)CC/C(=C\c2ccc(OC)cc2)C1=O (centres undefined) | 37.7 µM (inactive) | > 100 µM (inactive) | > 100 µM (inactive) | 46.2 µM (inactive) | 47.2 µM (inactive) | 59.8 µM (inactive) | 25 µM (inactive) | > 100 µM (inactive) | –
CC(=O)Oc1c(-c2ccccc2)[nH]c2cc([N+](=O)[O-])c(/C(Cl)=C/c3ccccc3)cc12 | 2.17 µM (inactive) | – | – | 3.41 µM (inactive) | 3.9 µM (inactive) | 3.31 µM (inactive) | – | 3.85 µM (inactive) | 4.36 µM (inactive)
